In one assay the target is T1, sphingomyelinase (Bacillus cereus, UniProt P11889).
T1 construct: purchased Sigma Chemical, St. Louis, Mo; S7651
As to the kind of experiment: SAST Sphingomyelinase Activity Screening Test. It is filed as biochemical. Conditions: test band brightness divided by average of positive controls; above 1 enhancer, below 1 inhibitor; BODIPY FL C5-Sphingomyelin substrate, 30 minutes, 25° C., PBS pH=7.4.

For assay [1], the system named is ceramidase (infant fecal extract). As to the kind of experiment: CAST Ceramidase Activity Screening Test. It is filed as biochemical. Conditions: relative to positive control, above 1 enhancer, below 1 inhibitor, C5 ceramide substrate, 18 hours, 25° C., PBS pH=7.4. The protocol:
Agents, such as botanical extracts and related compounds, for example, are tested for their ability to decrease the activity of ceramidase in a ceramidase/ceramide system. A decrease in the activity of ceramidase results in an increase in the level of ceramides. The Ceramidase Activity Screening Test is completed as follows:
Step 1: Preparation of Testing Solution Comprising Ceramidase (Fecal Extract), Agent, and Ceramide: Combine the following to prepare a 100 microliter test solution: (1) 10 microliters of agent where the agent is an aqueous solution or oil (if the agent is a powder solid, prepare 10 microliters of a 0.1 microgram/milliliter solution by dissolving the appropriate amount of powder or solid in Phosphate Buffered Saline, pH=7.4); (2) 10 microliters of infant fecal extract in Phosphate Buffered Saline, pH=7.4 prepared by extracting 1 gram of infant feces in 9 mL of Phosphate Buffered Saline, pH=7.4, and vortexing the extraction for about 2 minutes followed by centrifugation to remove any solids; (3) 10 microliters of 250 microgram/milliliter C5 ceramide in Phosphate Buffered Saline, pH=7.4; and (4) 70 microliters of Phosphate Buffered Saline, pH=7.4.
Step 2: Preparation of Control Testing Solution Comprising Ceramidase and Ceramide: Combine the following to prepare a 100 microliter test solution: (1) 10 microliters of infant fecal extract in Phosphate Buffered Saline, pH=7.4; (2) 10 microliters of 250 microgram/milliliter BIODIPY FL C5 ceramide (Molecular Probes, Eugene, Wash.) in Phosphate Buffered Saline, pH=7.4; and (3) 80 microliters of Phosphate Buffered Saline, pH=7.4. […]
Step 3: Illuminate each plate with a 364 nanometer light source and take pictures with a suitable camera, such as a digital Kodak DC 40. The digital image is transferred as a TIFF file to the Alpha Innotech Flourchem Plate Imaging System and analyzed as described above with similar positive (substrate and ceramidase) and negative (substrate and no enzyme) controls. […]

These results are taken from US7838025B2, “Products and methods for maintaining or increasing ceramide levels in skin” (Kimberly-Clark Worldwide, Inc., priority 2002, dated 2010).

T1 sequence (P11889 28-333): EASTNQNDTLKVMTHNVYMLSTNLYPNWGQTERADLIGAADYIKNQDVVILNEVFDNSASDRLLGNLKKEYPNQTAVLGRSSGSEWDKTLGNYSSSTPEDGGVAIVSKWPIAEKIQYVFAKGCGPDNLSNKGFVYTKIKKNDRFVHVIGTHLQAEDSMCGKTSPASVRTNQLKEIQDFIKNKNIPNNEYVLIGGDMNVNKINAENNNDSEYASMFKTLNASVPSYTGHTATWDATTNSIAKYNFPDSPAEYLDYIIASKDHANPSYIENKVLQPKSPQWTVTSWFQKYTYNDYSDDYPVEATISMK
Experimental for sphingomyelinase: Agents, such as botanical extracts and related compounds, for example, are tested for their ability to increase the activity of sphingomyelinase in a sphingomyelinase/sphingomyelin-containing system. An increase in the activity of sphingomyelinase results in an increase in the hydrolysis of sphingomyelin and an increased production of ceramide. The Sphingomyelinase Activity Screening Test to determine the efficacy of an agent is completed as follows:
Step 1: Preparation of Testing Solution Comprising Sphingomyelinase, Sphingomyelin, and Agent: Combine the following to prepare a 100 microliter test solution: (1) 10 microliters of agent (such as a botanical extract, for example) where the agent is an aqueous solution or oil (if the agent is a powder or solid, prepare 10 microliters of a 0.1 microgram/milliliter solution by dissolving the appropriate amount of powder or solid in Phosphate Buffered Saline, pH=7.4); (2) 10 microliters of a 0.1 microgram/milliliter sphingomyelinase (Catalogue No. S7651, Sigma Chemical, St. Louis, Mo. (or equivalent)) in Phosphate Buffered Saline, pH=7.4, solution; (3) 10 microliters of a 250 microgram/milliliter BODIPY FL C5-Sphingomyelin (Molecular Probes, Eugene, Oreg. (or equivalent)) in Phosphate Buffered Saline, pH=7.4, solution; and (4) 70 microliters of Phosphate Buffered Saline, pH=7.4.
Step 2: Preparation of Control Testing Solution Comprising Sphingomyelinase and Sphingomyelin: Combine the following to prepare a 100 microliter test solution: (1) 10 microliters of a 0.1 microgram/milliliter sphingomyelinase in Phosphate Buffered Saline, pH=7.4, solution; (2) 10 microliters of a 250 microgram/milliliter BODIPY FL C5-Sphingomyelin in Phosphate Buffered Saline, pH=7.4, solution; and (3) 80 microliters of Phosphate Buffered Saline, pH=7.4. […]

Regarding Potassium Laureth Phosphate, the “Effect on Sphingomyelinase Activity” value on sphingomyelinase was determined as 0.1 Times Activity. For the same molecule, the “Effect on Ceramidase Activity” value in assay [1] was “No Effect”.
Turning to “Sunflower Seedaminopropyl Morpholine Lactate”, the “Effect on Sphingomyelinase Activity” value on sphingomyelinase is given as 0.1 Times Activity. Besides, in assay [1], the “Effect on Ceramidase Activity” value was “No Effect”.
The like results for `CC(=O)Oc1c(C)c(C)c2c(c1C)CC[C@@](C)(CCC[C@H](C)CCC[C@H](C)CCCC(C)C)O2` [D1-alpha-Tocophenyl Acetate] were, in that order, 0.6 Times Activity and “≧1 Times Activity”.
